Experimental data as given in US20030187007A1, “Inhibitors of protein kinase for the treatment of disease” (priority 2001, published 2003).
Structures can show the parent of a compound that is named as a salt.

How the values were obtained:
Format in all cases: biochemical
[1] = biological target: KDR (Homo sapiens, UniProt P35968); experiment: Enzyme assay for  (KDR), IC50 determination; conditions: 50 nM KDR, 500 μM ATP
Protocol: Enzyme assays for IC50 determinations were performed in 96-well titer plates, in a total reaction volume of 50 μL. Each reaction contained 1.5 μL of appropriate dilutions of inhibitor, 50 mM Hepes, pH 7.4, 1 mM DTT, 10 mM magnesium chloride, 2 mM phospho-poly(E4Y) (Sigma Chemical Company), 500 μM unlabeled ATP, 0.0025 μM [^33P]ATP (Amersham Pharmacia Biotech), and 50 nM KDR. All components except KDR were added to the wells, and the reaction was started by the addition of the enzyme. The reactions were mixed and incubated at room temperature for 1 hr, after which the reactions were quenched by the addition of 50 μL of 8% phosphoric acid. At this point, 90 μL aliquots of the samples were applied to positively charged DEAE 96-well filter plates (Millipore Corporation MADENOB10). The plates were incubated for 30 min at room temperature. The samples were aspirated and the wells were washed 3 times with 200 μL of 0.5% phosphoric acid. To each well, 50 μL of scintillation cocktail was added and counted for 60 sec in a TopCount microplate scintillation counter (Packard Instrument Company). The concentration of a compound that inhibited the activity of KDR by 50% (IC50) was determined based its inhibition curve.

[2] = biological target: CDK2 complexed with cyclin A (Homo sapiens, UniProt P24941); experiment: Cyclin dependent kinase activity assay, phosphorylation of synthetic peptide PKTPKKAKKLRRR; conditions: 0.1 mM ATP, read-out: CDK 2 Activity*
Protocol: (§1) The assay of cyclin dependent kinase activity was determined by monitoring the phosphorylation of a synthetic peptide, PKTPKKAKKLRRR. The assay mixture contained 0.1 mM cold ATP, ^33P-γ-ATP (2000-4000 cpm/μL), 0.1 mM peptide, 1 mM DTT, and 10 mM MgCl2 in 100 mM HEPES buffer pH 7.4. The assay mixture, along with inhibitor and CDK enzyme (0.3-0.4 U/mL; either CDK5 complexed with p25, CDK2 complexed with complexed with cyclin A), was mixed together in a microtiter plate in a final volume of 40 μL, sealed and incubated for 2 hours at 30° C. Following incubation, a 15 μL aliquot was added to a Whatman P81 filtration plate containing 100 μL 0.5% phosphoric acid. This mixture was allowed to stand for 5 minutes prior to filtration on a vacuum manifold. The filter plate was washed with 5 successive additions of 300 μL 0.5% phosphoric acid. The filtration plate was air dried for 10 minutes before sealing the bottom. After addition of scintillation fluid to the sealed plate, phosphorylated peptide was quantified in a scintillation counter.

[3] = biological target: CDK5 complexed with p25 (Homo sapiens, UniProt Q00535); experiment: as above; conditions: CDK5 complexed with p25, 0.1 mM ATP; read-out: CDK 5 Activity*
Protocol: as §1

CDK5 complexed with p25, sequence (Q00535 whole entry): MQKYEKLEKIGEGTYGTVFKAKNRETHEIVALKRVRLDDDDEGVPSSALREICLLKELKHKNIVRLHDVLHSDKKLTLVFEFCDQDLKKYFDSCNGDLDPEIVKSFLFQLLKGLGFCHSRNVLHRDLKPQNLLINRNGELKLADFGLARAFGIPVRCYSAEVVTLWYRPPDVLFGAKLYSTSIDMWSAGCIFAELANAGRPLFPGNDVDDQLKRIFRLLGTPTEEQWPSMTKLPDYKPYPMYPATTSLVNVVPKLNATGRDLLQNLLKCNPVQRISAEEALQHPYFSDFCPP
CDK5 complexed with p25, sequence (Q15078 99-307 partner limits assumed): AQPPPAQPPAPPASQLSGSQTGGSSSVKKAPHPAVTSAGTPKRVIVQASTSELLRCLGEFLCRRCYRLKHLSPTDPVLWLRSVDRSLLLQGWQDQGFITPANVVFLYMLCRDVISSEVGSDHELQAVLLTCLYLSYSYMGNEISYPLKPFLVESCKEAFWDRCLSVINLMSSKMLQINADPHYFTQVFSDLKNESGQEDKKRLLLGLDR
KDR, sequence (P35968 20-1356): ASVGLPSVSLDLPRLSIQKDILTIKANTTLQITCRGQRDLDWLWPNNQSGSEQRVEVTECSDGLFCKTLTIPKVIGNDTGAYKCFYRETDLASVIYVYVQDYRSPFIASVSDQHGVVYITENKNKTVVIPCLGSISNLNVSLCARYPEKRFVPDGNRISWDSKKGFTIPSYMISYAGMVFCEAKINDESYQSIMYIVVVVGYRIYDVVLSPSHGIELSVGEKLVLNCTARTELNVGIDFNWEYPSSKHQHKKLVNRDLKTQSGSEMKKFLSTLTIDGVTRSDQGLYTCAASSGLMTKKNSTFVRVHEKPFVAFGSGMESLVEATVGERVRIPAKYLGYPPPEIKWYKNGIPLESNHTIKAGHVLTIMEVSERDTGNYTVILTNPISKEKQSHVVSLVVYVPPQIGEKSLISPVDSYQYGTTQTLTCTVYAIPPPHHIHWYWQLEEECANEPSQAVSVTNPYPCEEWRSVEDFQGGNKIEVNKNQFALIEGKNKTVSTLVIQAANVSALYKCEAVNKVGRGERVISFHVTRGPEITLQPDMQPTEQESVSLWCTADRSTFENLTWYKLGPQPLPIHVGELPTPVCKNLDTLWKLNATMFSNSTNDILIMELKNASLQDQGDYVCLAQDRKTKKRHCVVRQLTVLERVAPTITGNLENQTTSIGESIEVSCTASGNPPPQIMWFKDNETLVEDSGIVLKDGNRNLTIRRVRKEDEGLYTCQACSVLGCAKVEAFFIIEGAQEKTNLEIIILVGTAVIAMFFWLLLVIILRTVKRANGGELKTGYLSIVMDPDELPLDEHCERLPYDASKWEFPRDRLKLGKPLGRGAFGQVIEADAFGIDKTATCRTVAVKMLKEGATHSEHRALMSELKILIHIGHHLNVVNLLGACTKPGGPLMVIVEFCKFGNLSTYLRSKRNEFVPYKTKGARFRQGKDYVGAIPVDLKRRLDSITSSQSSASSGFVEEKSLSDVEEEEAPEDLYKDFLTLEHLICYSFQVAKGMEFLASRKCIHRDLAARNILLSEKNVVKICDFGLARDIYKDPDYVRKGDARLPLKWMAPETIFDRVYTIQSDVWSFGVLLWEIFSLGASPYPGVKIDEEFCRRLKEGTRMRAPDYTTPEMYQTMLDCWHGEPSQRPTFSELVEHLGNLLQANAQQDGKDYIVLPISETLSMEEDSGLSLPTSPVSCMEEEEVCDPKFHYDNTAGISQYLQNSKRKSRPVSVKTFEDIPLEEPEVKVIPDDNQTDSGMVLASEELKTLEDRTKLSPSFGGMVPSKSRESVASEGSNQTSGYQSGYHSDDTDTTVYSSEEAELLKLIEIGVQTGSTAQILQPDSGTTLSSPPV

SMILES | IC50 [1] [nM] | IC50 [2] [nM] | IC50 [3] [nM]
Nc1nc(Nc2ccc(O)cc2F)cc(-c2cc(-c3ccc(O)cc3)ccc2O)n1 [Example 119, 3-[2-Amino-6-(2-fluoro-4-hydroxyphenylamino)-pyrimidin-4-yl]-biphenyl-4,4′-diol] | 1000 to 20000 | – | –
Nc1nc(N[C@@H](CO)c2ccccc2)cc(-c2cc(-c3ccc4[nH]ccc4c3)ccc2O)n1 [Example 93, 2-[2-Amino-6-(2-hydroxy-1 R-phenyl-ethylamino)-pyrimidin-4-yl]-4-(1H-indol-5-yl)-phenol] | < 1000 | – | –
Nc1nc(N[C@@H](CO)c2ccccc2)cc(-c2cc(-c3ccc(O)cc3)ccc2O)n1 [Example 112, 3-[2-Amino-6-(2-hydroxy-1-phenyl-ethylamino)-pyrimidin-4-yl]-biphenyl-4,4′-diol] | < 1000 | – | –
Nc1nc(N[C@@H](CO)Cc2c[nH]c3ccccc23)cc(-c2cc(-c3ccc(O)cc3)ccc2O)n1 [Example 96, 3-{2-Amino-6-[2-hydroxy-1R-(1H-indol-3-ylmethyl)-ethylamino]-pyrimidin-4-yl}-biphenyl-4,4′-diol] | 1000 to 20000 | – | –
CC(C)[C@@H](CO)Nc1cc(-c2cc(-c3ccc(O)cc3)ccc2O)nc(N)n1 [Example 103, 3-[2-Amino-6-(I -hydroxymethyl-2-methyl-propylamino)pyrimidin-4-yl]-biphenyl-4.4′-diol] | 1000 to 20000 | – | –
CC(C)(C)OC(=O)n1cccc1-c1ccc(O)c(-c2ccnc(N)n2)c1 [Example 95, 2-[3-(2-Amino-pyrimidin-4-yl)-4-hydroxy-phenyl]-pyrrole-1-carboxylic acid t-butyl ester] | 1000 to 20000 | – | –
Nc1nc(NCCc2ccccn2)cc(-c2cc(-c3ccc(O)cc3)ccc2O)n1 [Example 106, 3-[2-Amino-6-(2-pyridin-2-yl-ethylamino)-pyrimidin-4-yl]-biphenyl-4,4′-diol] | < 1000 | – | –
Nc1nc(NCc2ccccc2F)cc(-c2cc(-c3ccc(O)cc3)ccc2O)n1 [Example 116] | < 1000 | – | –
Nc1nc(Nc2cccc(Cl)c2)cc(-c2cc(-c3ccc(O)cc3)ccc2O)n1 [Example 109, 3-[2-Amino-6-(3-chloro-phenylamino)-pyrimidin-4-yl]-biphenyl-4,4′-diol] | < 1000 | – | –
Nc1nc(N[C@H](CO)CSCc2ccccc2)cc(-c2cc(-c3ccc(O)cc3)ccc2O)n1 [Example 99, 3-[2-Amino-6-(2-benzylsulfanyl-1R-hydroxymethyl-ethylamino)-pyrimidin-4-yl]-biphenyl-4,4′-diol] | < 1000 | – | –
COc1ccc(CNc2cc(-c3cc(-c4ccc(O)cc4)ccc3O)nc(N)n2)cc1 [Example 118, 3-[2-Amino-6-(4-methoxy-benzylamino)-pyrimidin-4-yl]-biphenyl-4,4′-diol] | < 1000 | – | –
Nc1nc(NCCN2CCOCC2)cc(-c2cc(-c3ccc(O)cc3)ccc2O)n1 [Example 105, 3-[2-Amino-6-(2-morpholin-4-yl-ethylamino)-pyrimidin-4-yl]-biphenyl-4,4′-diol] | 1000 to 20000 | – | –
Nc1nc(-c2cc(-c3ccc(O)cc3)ccc2O)cc(N2CCN(Cc3ccccc3)CC2)n1 [Example 101, 3-[2-Amino-6-(4-benzyl-piperazin-1-yl)-pyrimidin-4-yl]-biphenyl-4,4′-diol] | 1000 to 20000 | – | –
Nc1nc(Nc2ccc(Cl)cc2)cc(-c2cc(-c3ccc(O)cc3)ccc2O)n1 [Example 110, 3-[2-Amino-6-(4-chloro-phenylamino)-pyrimidin-4-yl]-biphenyl-4,4′-diol] | < 1000 | – | –
Nc1nc(-c2ccsc2)cc(-c2cc(-c3ccc(O)cc3)ccc2O)n1 [Example 113, 3-(2-Amino-6-thiophen-3-yl-pyrimidin-4-yl)-biphenyl-4,4′-diol] | 1000 to 20000 | – | –
Nc1nc(NCCc2c[nH]c3ccccc23)cc(-c2cc(-c3ccc(O)cc3)ccc2O)n1 [Example 100, 3-{2-Amino-6-[2-(1-indol-3-yl)-ethylamino]-pyrimidin-4-yl} biphenyl-4,4′-diol] | < 1000 | – | –
Nc1cccc(-c2ccc(O)c(-c3ccnc(N)n3)c2)c1 [Example 94, 3′-Amino-3-(2-amino-pyrimidin-4-yl)-biphenyl-4-ol] | 1000 to 20000 | – | –
Nc1nc(N[C@H](CO)c2ccccc2)cc(-c2cc(-c3ccc(O)cc3)ccc2O)n1 [Example 97, 3-[2-Amino-6-(2-hydroxy-1S-phenyl-ethylamino)-pyrimidin-4-yl]-biphenyl-4,4′-diol] | < 1000 | – | –

SMILES | IC50 [1] [nM] | IC50 [2] [nM] | IC50 [3] [nM]
Nc1nc(-c2cc(-c3ccc(O)cc3)ccc2O)cc(N2CCSCC2)n1 [Example 107, 3-(2-Amino-6-thiomorpholin-4-yl-pyrimidin-4-yl)-biphenyl-4,4′-diol] | 1000 to 20000 | – | –
COc1cccc(Nc2cc(-c3cc(-c4ccc(O)cc4)ccc3O)nc(N)n2)c1 [Example 111, 3-[2-Amino-6-(3-methoxy-phenylamino)-pyrimidin-4-yl]-biphenyl-4,4′-diol] | < 1000 | – | –
NC(=O)N/N=C/c1cc(-c2cccc(C(=O)O)c2)ccc1O [Example 18, 5-(3-Carboxyphenyl)salicylaldehyde semicarbazone hydrochloride] | – | 500 to 2000 | < 500
NC(=S)N/N=C/c1cc(-c2ccc([N+](=O)[O-])cc2)ccc1O [Example 11, 5-(4-Nitrophenyl)salicylaldehyde thiosemicarbazone] | – | > 5000 | 2000 to 5000
NC(=O)N/N=C/c1cc(-c2ccc(O)cc2)c(O)cc1O [Example 29, 4-Hydroxy-5-(4-hydroxyphenyl)salicylaldehyde semicarbazone hydrochloride] | – | 500 to 2000 | > 5000
Nc1cccc(-c2ccc(O)c(-c3ccnc(N)n3)c2)n1 [Example 64, 4-(6-Amino-pyridin-2-yl)-2-(2-amino-pyrimidin-4-yl)-phenol] | – | < 500 | < 500
Nc1nccc(-c2cc(-c3cccnc3)ccc2O)n1 [Example 63, 2-(2-Amino-pyrimidin-4-yl)-4-pyridin-3-yl-phenol] | – | > 5000 | < 500
Nc1nc(-c2cc(-c3ccc(O)cc3)ccc2O)cc(N2CCNCC2)n1 [Example 78, 3-(2-Amino-6-piperazin-1-yl-pyrimidin-4-yl)-biphenyl-4,4′-diol] | – | > 5000 | < 500
COc1cccc(-c2ccc(O)c(/C=N/NC(N)=S)c2)c1 [Example 6, 5-(3-Methoxyphenyl)salicylaldehyde thiosemicarbazone] | – | 2000 to 5000 | 2000 to 5000
Nc1nc(NCCO)cc(-c2cc(-c3ccc(O)cc3)ccc2O)n1 [Example 55, 3-[2-Amino-6-(2-hydroxy-ethylamino)-pyrimidin-4-yl]-biphenyl-4,4′-diol] | – | < 500 | < 500
COC(=O)/C=C/c1ccc(O)c(/C=N/NC(N)=S)c1 [Example 37, Methyl (3-formyl-4-hydroxy)cinnamate, thiosemicarbazone] | – | > 5000 | 500 to 2000
Nc1nc(-c2cc(-c3ccc(O)cc3)ccc2O)cc(N2CCCC(CO)C2)n1 (stereo not shown) [Example 82, 3-[2-Amino-6-(3-hydroxymethyl-piperidin-1-yl)-pyrimidin-4-yl]-biphenyl-4,4′-diol] | – | < 500 | < 500
NC(=S)N/N=C/c1c(O)ccc2ccccc12 [Example 42, 2-[(2-Hydroxy-1-naphthyl)methylidene]hydrazine-1-carbothioamide] | – | < 500 | < 500
Nc1nccc(-c2cc(-c3ccc(O)c(F)c3)ccc2O)n1 [Example 53, 3-(2-Amino-pyrimidin-4-yl)-3′-fluoro-biphenyl-4,4′-diol] | – | < 500 | < 500
Nc1cc(-c2cc(-c3ccc(O)cc3)ccc2O)nc(N)n1 [Example 52, 3-(2,6-Diamino-pyrimidin-4-yl)-biphenyl-4,4′-diol] | – | < 500 | < 500
Nc1nc(Cl)cc(-c2cc(-c3ccc(O)cc3)ccc2O)n1 [Example 54, 3-(2-Amino-6-chloro-pyrimidin-4-yl)-biphenyl-4,4′-diol] | – | < 500 | < 500
NC(=O)N/N=C/c1cc(-c2cccc(CO)c2)ccc1O [Example 9, 5-(3-Hydroxymethylphenyl)salicylaldehyde semicarbazone hydrochloride] | – | 2000 to 5000 | 500 to 2000
COC(=O)c1cccc(-c2ccc(O)c(/C=N/NC(N)=S)c2)c1 [Example 12, 5-(3-Methoxycarbonylphenyl)salicylaldehyde thiosemicarbazone] | – | > 5000 | 500 to 2000
